# “Also recorded” adds a separate entry of the source.
# Legend:
# PTP1B1-321 = molecular target: T1, PTP1B1-321 (Homo sapiens, UniProt P18031); assay: PTP1B phosphatase activity assay, short form; assay type: biochemical
# T1 construct: C-terminally truncated PTP1B (1-321); made in house; host or cells: Escherichia coli BL21 (DE3)-RIL
# T1 sequence (P18031 1-321): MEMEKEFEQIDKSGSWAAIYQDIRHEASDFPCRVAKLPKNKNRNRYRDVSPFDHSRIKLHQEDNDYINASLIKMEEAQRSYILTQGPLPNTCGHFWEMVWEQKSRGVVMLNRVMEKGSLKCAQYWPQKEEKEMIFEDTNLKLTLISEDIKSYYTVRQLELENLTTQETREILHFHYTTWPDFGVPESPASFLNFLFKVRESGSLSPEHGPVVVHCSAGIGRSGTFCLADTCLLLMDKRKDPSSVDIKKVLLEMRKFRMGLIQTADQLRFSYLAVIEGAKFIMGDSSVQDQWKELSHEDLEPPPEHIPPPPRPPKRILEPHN
# Method: All common reagents were obtained from Thermo Fisher Scientific (Waltham, MA) or Sigma-Aldrich (St. Louis, MO). Difluoro-4-methylumbelliferyl phosphate (DiFMUP) was obtained from Invitrogen (cat #D22065). Solid black 384-well plates (cat #3573) for phosphatase assays were from Corning Incorporated (Corning, NY).
# Wild-type PTP1B containing a His-tag was expressed in Escherichia coli BL21 (DE3)-RIL using LB. Cells were resuspended in lysis buffer (50 mM Hepes pH 7.2, 150 mM NaCl, 10 mM imidazole, 2 mM TCEP) with cOmplete EDTA-free Protease Inhibitor Cocktail (Roche), and then lysed using a sonicator at 4° C. Lysates were clarified by centrifugation. Initial protein purification was by gravity flow, nickel column chromatography. Protein was used immediately or stored at −80° C. in 50 mM HEPES pH 7.4, 100 mM NaCl, 2 mM dithiothreitol and 25% glycerol.
# PTP1B1-394 = molecular target: T2, PTP1B1-394 (Homo sapiens, UniProt P18031); assay: Gel filtration for aggregation of PTP1B; settings: gel filtration elution profile
# T2 construct: elution profile of PTP1B1-394 in the absence (circles) and presence (triangles) of DPM-1001; His-tag; made in house; host or cells: Escherichia coli BL21 (DE3)-RIL
# Method: PTP1B (5 μM) was incubated with 10 μM MSI1436 in a final volume of 200 μl buffer (50 mM HEPES, pH 7.0, 100 mM NaCl, 0.2 mM EDTA, 2 mM DTT) at 4° C. The reaction mixture was then subjected to gel filtration on a Superdex 200 column (HR30/10; Pharmacia Biotech Inc.). Prior to loading the MSI1436-saturated protein sample, the column was equilibrated with 50 mM HEPES, pH 7.0, 100 mM NaCl, 0.2 mM EDTA and 2 mM DTT. The void volume (Vo) and total volume (Vt) were measured using blue dextran and Coomassie blue dye, respectively. Fractions of 0.5 ml were collected, and the protein concentration in each sample was determined by Bradford assay or by recording the UV absorption spectrum at 280 nm.
# [1] = system: fibroblasts derived from Wilson's disease patients; assay: Copper-induced toxicity in Wilson's disease patient-derived fibroblasts; assay type: cell-based
# Method: HepG2 cells purchased from ATCC were cultured in RPMI media containing 10% FBS, 5% CO2 at 37 C. Control (AG09319) and Wilson's disease patient-derived fibroblasts (GM00032, GM00033, GM05257, GM12158, GM05798 and GM11778) were obtained from Coriell Biorepository and cultured in DMEM, 10% FBS, 5% CO2 at 37° C.
# For cell survival assays, 10,000 cells were seeded in a 96 well plate and cultured until fully confluent (90%). To these cells, ATP7B siRNAs or scrambled siRNA (negative control) purchased from Qiagen and Santa Cruz Biotechnology were transfected. Lipofectamine RNAiMAX reagent (Thermofischer) and siRNAs were diluted into a final volume of 100 μl in Opti-MEM (Gibco). The mixture was incubated at room temperature for 30 min, following which 800 μl of Opti-MEM was added to the mixture. The above transfection solution was overlaid onto cells at a final concentration of 5 nM siRNA. Transfection of HepG2 cells with scrambled siRNA served as negative control. Twelve hours after the transfection, complete media was added to each well. Following which, knockdown efficiency was checked (24 hours later) and cells were exposed to varying concentration of copper (0-1 mM) for 12 h and cell viability was determined using the MTT assay as previously described (37). […]
# TX mice = assay: Survival and tolerability in the TX mouse model of Wilson's disease; assay type: in vivo
# Method: C3He-Atp7b^tx-j were obtained from the Jackson laboratory. All animal experiments were performed according to protocols approved by the Institutional Animal Use and Care Committee of Cold Spring Harbor laboratory. Mice were injected intraperitoneally (i.p.) with vehicle, or administered DPM-1001 intraperitoneally or orally at 5 mg/kg once every third day, for over a year. At the end of the study animals were euthanized and tissue samples were removed for biochemical studies.
# T2 sequence (P18031 1-394): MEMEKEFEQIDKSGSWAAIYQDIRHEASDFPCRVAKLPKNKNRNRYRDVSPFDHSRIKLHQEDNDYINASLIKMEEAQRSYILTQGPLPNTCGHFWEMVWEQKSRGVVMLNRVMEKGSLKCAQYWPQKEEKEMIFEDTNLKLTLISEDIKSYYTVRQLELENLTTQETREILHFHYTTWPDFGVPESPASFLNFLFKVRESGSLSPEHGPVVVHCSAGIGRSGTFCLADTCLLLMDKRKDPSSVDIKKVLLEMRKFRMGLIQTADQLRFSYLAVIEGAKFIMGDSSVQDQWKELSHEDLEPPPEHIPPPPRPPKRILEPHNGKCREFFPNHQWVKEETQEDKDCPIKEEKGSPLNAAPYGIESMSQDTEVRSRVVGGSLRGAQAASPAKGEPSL
smiles,measurement,setting,value
COC(=O)CCC(C)C1CCC2C3C(O)CC4CC(NCCCCNCc5ccccn5)CCC4(C)C3CCC12C (centres unmarked) [DPM-1001],reversibility of inhibition of PTP1B1-321,"PTP1B1-321; enzyme-inhibitor complex diluted, activity recovery monitored",reversibly
same,time dependent change in the IC50 for PTP1B1-321,PTP1B1-321; varying incubation times,no obvious time dependent change
same,aggregation of PTP1B,PTP1B1-394,did not induce aggregation
same,protection from copper-induced cell death,[1],prevents such cytotoxic effects; also recorded: inhibited copper-induced cell death
same,longevity of TX mice (in words),"TX mice; 5 mg/kg, every third day",prolongs their life
same,survival at one year of age,TX mice; TX mice,90%
same,survival at one year of age,TX mice; wild-type mice,100%
same,toxic side-effects of prolonged treatment,TX mice; wild-type or TX mice,did not have overt toxic side-effects
